Measurements from publication PMC9738565, “N1-Benzyl Tryptamine Pan-SHIP1/2 Inhibitors: Synthesis and Preliminary Biological Evaluation as Anti-Tumor Agents” (Molecules, 2022).

What was measured:
[1] = tested on: multiple myeloma cells; parameters: method as in PMID 22033675; conditions: followed by caspase cascade activation leading to extensive apoptosis; cited from earlier work
[2] = tested on: several cell lines, especially breast cancer cells; parameters: method as in PMID 22033675, PMID 27716613; conditions: cited from earlier work
[3] = tested on: OCRL; parameters: method as in PMID 22033675; conditions: cited from earlier work
[4] = biological target: T1, tSHIP1 (Homo sapiens, UniProt Q92835); test: Fluorescence Polarization (FP) assay for the detection of PI(3,4)P2, SHIP1; type: biochemical
T1 sequence (Q92835 399-715 limits assumed): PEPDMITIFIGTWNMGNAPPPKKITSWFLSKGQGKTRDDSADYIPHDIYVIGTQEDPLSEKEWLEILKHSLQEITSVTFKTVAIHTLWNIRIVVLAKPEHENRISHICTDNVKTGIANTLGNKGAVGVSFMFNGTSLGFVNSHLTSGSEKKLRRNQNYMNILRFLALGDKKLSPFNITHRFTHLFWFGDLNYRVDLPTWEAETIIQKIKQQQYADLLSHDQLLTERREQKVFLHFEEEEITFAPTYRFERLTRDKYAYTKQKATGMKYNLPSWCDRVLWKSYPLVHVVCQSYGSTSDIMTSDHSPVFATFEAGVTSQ
Method: (§1) These compounds were then tested for their activity against the two SHIP paralogs, SHIP1 and SHIP2 in the colorimetric malachite green phosphatase assay. The malachite green assay detects the amount of free phosphate produced from enzymatic reactions with SHIP and an inositol phospholipid substrate.
4.8. Fluorescence Polarization (FP) Assays for the Detection of PI(3,4)P2
The FP Assay for the detection of PI(3,4)P2 (Echelon Biosciences) was performed using tSHIP1 [48] with serial dilutions of the tryptamines in DMSO according to the manufacturer’s recommendation as previously described. […] 40 µL of 4 µM PIP3 (PI(3,4,5)P3-diC8) in Rx buffer is added to each reaction and incubated at 37 °C for 20 min, followed by heat inactivation for 3 min at 95 °C. Reactions were spun down briefly and 10 µL of each reaction was added in 6 replicate wells to a black 384-well plate provided with the FP kit. 10 µL of 1X reconstituted Detector (a phosphoinositide binding protein) in PBS is then added to each well, followed by 5 µL of 1X freshly diluted Probe (in PBS, a fluorophore-labeled phosphoinositide) protected from light. Assay plates are gently tapped to mix, the plate is sealed and spun down briefly and the reaction is allowed to equilibrate for 60 min at room temperature protected from light.

[5] = biological target: T2, SHIP2 (Homo sapiens, UniProt O15357); test: Malachite green phosphatase release assay, SHIP2; type: biochemical
T2 construct: purchased Echelon Biosciences
T2 sequence (O15357 1-1258): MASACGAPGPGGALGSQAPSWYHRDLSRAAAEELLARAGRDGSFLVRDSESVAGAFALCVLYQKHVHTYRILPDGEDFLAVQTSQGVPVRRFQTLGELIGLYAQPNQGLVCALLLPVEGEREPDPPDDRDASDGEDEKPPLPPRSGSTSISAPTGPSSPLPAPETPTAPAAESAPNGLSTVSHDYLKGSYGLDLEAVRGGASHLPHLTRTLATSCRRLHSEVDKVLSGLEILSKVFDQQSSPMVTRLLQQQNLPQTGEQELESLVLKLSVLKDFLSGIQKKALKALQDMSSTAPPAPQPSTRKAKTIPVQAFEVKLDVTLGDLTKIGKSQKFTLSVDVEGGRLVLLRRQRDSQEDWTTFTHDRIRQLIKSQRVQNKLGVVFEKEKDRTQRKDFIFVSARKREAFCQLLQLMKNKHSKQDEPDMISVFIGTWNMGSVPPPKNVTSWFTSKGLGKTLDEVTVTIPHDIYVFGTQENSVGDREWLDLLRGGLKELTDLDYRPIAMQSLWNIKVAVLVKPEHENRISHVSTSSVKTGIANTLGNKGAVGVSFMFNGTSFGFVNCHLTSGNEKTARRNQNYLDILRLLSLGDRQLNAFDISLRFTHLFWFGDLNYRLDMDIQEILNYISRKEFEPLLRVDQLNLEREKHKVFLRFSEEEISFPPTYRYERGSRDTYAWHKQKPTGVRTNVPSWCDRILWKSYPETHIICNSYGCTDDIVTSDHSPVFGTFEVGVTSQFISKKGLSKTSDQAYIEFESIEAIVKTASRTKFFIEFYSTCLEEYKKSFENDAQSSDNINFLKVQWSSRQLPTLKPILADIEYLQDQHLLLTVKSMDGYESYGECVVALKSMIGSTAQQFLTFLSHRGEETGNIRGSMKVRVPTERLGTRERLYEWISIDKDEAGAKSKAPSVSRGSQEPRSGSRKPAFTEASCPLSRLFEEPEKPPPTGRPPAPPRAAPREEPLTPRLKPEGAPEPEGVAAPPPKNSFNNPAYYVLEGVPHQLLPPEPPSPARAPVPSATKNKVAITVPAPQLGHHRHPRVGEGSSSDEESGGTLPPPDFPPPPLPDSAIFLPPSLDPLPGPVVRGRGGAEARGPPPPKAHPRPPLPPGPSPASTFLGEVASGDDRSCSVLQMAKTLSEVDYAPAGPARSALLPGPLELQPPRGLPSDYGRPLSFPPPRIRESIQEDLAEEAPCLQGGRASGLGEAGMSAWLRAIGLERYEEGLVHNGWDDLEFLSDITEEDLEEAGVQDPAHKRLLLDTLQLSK
Method: as §1
(§2) 4.7. Malachite Green Phosphatase Release Assays
(§3) Malachite green assays to monitor phosphatase release (Echelon Biosciences) were performed with recombinant human truncated SHIP1 (tSHIP1) and SHIP2 (Echelon Biosciences). Serial dilutions of the compounds dissolved in DMSO were added to the recombinant enzymes diluted in reaction buffer Rx (50 mM Hepes pH 7.4, 150 mM NaCl, 1 mM MgCl2, 0.25 mM EDTA) in triplicate reaction wells in 96-well plates. After incubation for 2 min at room temperature, 2.5 µL of 1 mM phosphatidylinositol 3,4,5-trisphosphate diC8 (PI(3,4,5)P3-diC8, Echelon Biosciences) was added to each reaction to a final concentration of 100 µM in a final volume of 25 µL /well. Following a 20 min incubation at 37 °C, 100 µL of Malachite Green solution (Echelon Biosciences) was added to each well and the plates were incubated at room temperature in the dark for 15 min. Plates were then read at 620 nm on a plate reader (Synergy 2, BioTek, Santa Clara, CA, USA). In addition, 3α-Aminocholestane, a known SHIP1 inhibitor, and AS1949490, a known SHIP2 inhibitor, were used as positive controls.

[6] = tested on: mice; test: Side effect observed in mice; conditions: in vivo
[7] = tested on: recombinant human truncated SHIP1 (tSHIP1); test: Malachite green phosphatase release assay, SHIP1; type: biochemical; conditions: for Malachite (250 µM) % Inhib. SHIP1: 250 µM compound; for Malachite (500 µM) % Inhib. SHIP1: 500 µM compound; for activity against SHIP1 (in words): summary of Table 1
Method: These compounds were then tested for their activity against the two SHIP paralogs, SHIP1 and SHIP2 in the colorimetric malachite green phosphatase assay. The malachite green assay detects the amount of free phosphate produced from enzymatic reactions with SHIP and an inositol phospholipid substrate. The Malachite assay is useful for ruling out compounds that are fluorescent or have aggregation issues and is inexpensive, so it was utilized as the primary screen even though it is not as sensitive as other assays.
as §2, §3

[8] = tested on: human blood cell cancers that express SHIP1; parameters: method as in PMID 20200281, PMID 22033675; conditions: cited from earlier work
[9] = tested on: multiple myeloma; parameters: method as in PMID 22033675; conditions: xenogeneic multiple myeloma model in mice; cited from earlier work
[10] = tested on: leukemia cell lines (NB4, HSB2, K562 and 697-Pre-B), multiple myeloma cell line OPM-2, breast cancer cell lines MBA-MD-231 and MCF-7; test: MTT cell viability assay on cancer cell lines; type: cell-based; conditions: Figure 3
Source text: . The assay monitors the ability of NADPH-dependent cellular oxidoreductases to reduce the dye MTT (3-(4,5-dimethylthiazol-2-yl)-2,5-diphenyltetrazolium bromide), which when reduced produces a purple color that can be easily quantified. This assay is often used to determine cell viability. […] All of these cell lines express SHIP1 due to their hematopoietic origin, as SHIP1 is selectively expressed in blood and bone marrow cells. Cytotoxicity was also found on the breast cancer cell lines MBA-MD-231 and MCF-7, which is likely due to the inhibition of SHIP2. […]. 4.9. MTT Cell Viability Assay
Cells were treated in triplicate or more with increasing concentrations of the compound. Cell viability was determined with a Cell Counting Kit (Dojindo Molecular Technologies, Rockville, MD, USA) per the manufacturer’s instructions. The […] (OD) of compound-treated cells was divided by the OD of their vehicle control, and the viability was expressed as a percentage of untreated cells. Results are expressed as mean ± standard error of the mean (SEM) of three individual experiments. […]

| Compound | cell cycle effect in multiple myeloma cells [1] | antitumor effects on cell lines [2] | effect on OCRL [3] | IC50 [4] [µM] | inhibition at 250 µM ([5]; 250 µM compound, read-out: Malachite (250 µM) % Inhib. SHIP2) [%] | inhibition at 500 µM ([5]; 500 µM compound, read-out: Malachite (500 µM) % Inhib. SHIP2) [%] | activity against SHIP2 (in words) ([5]; summary of Table 1) | psychotropic effect in mice [6] | Malachite (250 µM) % Inhib. SHIP1 [7] [%] | Malachite (500 µM) % Inhib. SHIP1 [7] [%] | activity against SHIP1 (in words) [7] | Akt activation and apoptosis [8] | protection from multiple myeloma growth [9] | cytotoxicity on cancer cell lines (in words) [10] |
| --- | --- | --- | --- | --- | --- | --- | --- | --- | --- | --- | --- | --- | --- | --- |
| CSc1ccc2c(c1)c(CCN)c(C)n2Cc1ccccc1Cl.Cl [Compound 1, 2-(1-(2-Chlorobenzyl)-2-methyl-5-(methylthio)-1H-indol-3-yl)ethanaminium chloride] | G2/M cell cycle arrest | significant antitumor effects | no effect | 5 | 7 | 59 | significant activity | induced a psychotropic effect | 7 | 51 | significant activity | – | – | – |
| CC(C)CCC[C@@H](C)[C@H]1CC[C@H]2[C@@H]3CC[C@H]4C[C@H](N)CC[C@]4(C)[C@H]3CC[C@]12C [Compound 3AC, 3α-aminocholestane] | – | – | – | – | – | – | – | – | – | – | – | reduces Akt activation and promotes apoptosis | effective in protecting the majority of mice | – |
| CSc1ccc2c(c1)c(CCN)c(C)n2Cc1ccc(Cl)cc1Cl.Cl [Compound 7d, 2-(1-(2,4-Dichlorobenzyl)-2-methyl-5-(methylthio)-1H-indol-3-yl)ethanaminium chloride] | – | – | – | – | – | – | – | – | 32 | 52 | significant activity | – | – | greatest cytotoxicity |
